Reference: ChEMBL document CHEMBL1145742, “Investigation of an antibody-ligase. Evidence for strain-induced catalysis” (Bioorg Med Chem Lett, 2003)

How the values were obtained:
[1] = Kinetic parameter Kuncat against monoclonal antibody 16 G3
[2] = Substrate specificity, the ratio of Kcat to that of Km was determined against monoclonal antibody 16 G3
[3] = Kinetic parameter KM against monoclonal antibody 16 G3
[4] = Kinetic parameter Kcat against monoclonal antibody 16 G3
[5] = Kinetic parameter effective molarity against monoclonal antibody 16 G3
[6] = Kinetic parameter Vmax against monoclonal antibody 16 G3

SMILES: O=C(O)CCCC(=O)N[C@@H](Cc1ccccc1)C(=O)Oc1ccc([N+](=O)[O-])cc1
- Kuncat [1]: 0.000667 M⁻¹ s⁻¹
- Substrate specificity [2]: 6
- Km [3]: 100 µM
- k cat [4]: 0.01 s⁻¹
- Molarity [5]: 15 M
- Vmax [6]: 6 µM/min

SMILES: O=C(O)CCCC(=O)N[C@H](C(=O)Oc1ccc([N+](=O)[O-])cc1)C1CCCCC1
- Kuncat [1]: 0.000833 M⁻¹ s⁻¹
- Substrate specificity [2]: 3
- Km [3]: 300 µM
- k cat [4]: 0.00167 s⁻¹
- Molarity [5]: 2 M
- Vmax [6]: 1 µM/min

SMILES: NC(=O)[C@H](N)Cc1c[nH]c2ccccc12
- Km [3]: 900 µM
